“Also recorded” adds a separate entry of the source.
Key:
mouse fibroblast L929 = assay: Necroptosis stimulation experiment, cell morphology after TNF-α + Z-VAD; type: cell-based; settings: L929, TNF-α (20 ng/mL)+Z-VAD (20 μM), polypeptide 20 μM, compared with TAT-mRIP3
Procedure: The necroptosis induced by TNF-α (20 ng/mL)+Z-VAD (20 μM) is in mouse fibroblast L929, and polypeptide (20 μM) is added to intervene. After 12 hours treatment, the morphological changes of the cell are analyzed: Dimethyl sulfoxide (DMSO) is used as control group); the scale is 20 μm.
After 12 hours, the necroptosis of the cells is stimulated.

[1] = system: intestinal tissues of Prmt5^iIEC-KO mice; assay: HE histological analysis of mouse intestine; type: in vivo; settings: compared with TAT and unmodified (TAT-mRIP3) polypeptide group
mouse L929 cells = assay: Membrane penetrating experiment (fluorescence microscopy of FITC-labeled polypeptide); type: cell-based; settings: 20 μM polypeptide, 24 hours
Procedure: Under the condition of necroptosis activation, it is observed whether the symmetrical dimethyl modified polypeptide fragment is capable of reducing the necroptosis and protecting cells from death. 20 μM polypeptide is added to mouse L929 cells for 24 hours, and the efficiency of polypeptide entering the target cells is analyzed by fluorescence microscope, with the scale of 275 μm, and the results are shown in FIG. 1A-FIG. 1B.

pRIP1, pRIP3 and pMLKL = assay: Protein detection of necroptosis marker molecules after TNF-α + Z-VAD; type: cell-based, mouse; settings: L929, TNF-α (20 ng/ml)+Z-VAD (20 μM), peptide 10 μM, 20 μM and 50 μM, 12 hours
Procedure: Furthermore, the necroptosis reaction in cells is detected. Mouse fibroblast L929 is treated with the classic cell necroptosis inducer TNF-α (20 ng/ml)+Z-VAD (20 μM), and at the same time, the peptides TAT (20 μM), TAT-mRIP3-WT and TAT-mRIP3-SDMA (10, 20 and 50 μM) are added. Cell samples are collected for protein detection after 12 hours.

Prmt5^iIEC-KO mice = assay: Survival (lifetime) analysis of tamoxifen-induced Prmt5 knockout mice; type: in vivo, mouse; settings: tamoxifen 75 mg/kg, polypeptide 10 mg/kg intraperitoneally once a day until death, ** p<0.01
Procedure: Tamoxifen-induced mouse intestinal epithelial cell-specific gene knockout mice (Prmt5^iIEC-KO) are used. Tamoxifen is given (75 mg/kg) to mice at age of 8 weeks to induce Prmt5 gene knockout and cell necroptosis (intraperitoneal injection, once a day, for 5 days). Using Prmt5^iIEC-KO, while tamoxifen is injected to induce Prmt5 gene knockout, mice are injected with different types and concentrations of peptides intraperitoneally, and the survival cycle of mice is analyzed, ** p<0.01. Mice are injected intraperitoneally with 10 mg/kg polypeptide once a day until the mice die.

TAT-mRIP3-SDMA: GRKKRRQRRRPQQAQFGRG (SDMA) GWQPFHK; cell-penetrating peptide TAT connected to mouse RIP3 peptide with symmetric di-methylated arginine 479
protection against necroptosis / cell death (cell morphology) (mouse fibroblast L929): reducing cell death; also recorded: obvious protective effect | intestinal tissue necrosis and intestinal cavity structure (HE staining) [1]: significant protective effect | efficiency of polypeptide entering the target cells (fluorescence intensity) (mouse L929 cells): capable of entering mouse lung fibroblast L929 | expression levels of pRIP1, pRIP3 and pMLKL (pRIP1, pRIP3 and pMLKL): decreasing the expression levels; also recorded: lower than control group | lifetime of mice (Prmt5^iIEC-KO mice): significantly prolonged

— patent US20250000952A1, “POLYPEPTIDE BASED ON RECEPTOR-INTERACTING PROTEIN KINASE-3 METHYLATION MODIFICATION AND APPLICATION THEREOF IN CELL NECROPTOSIS-RELATED DISEASES” (Air Force Medical University of the People's Liberation Army, priority 2023, published 2025)
